Experimental data as given in patent publication US20210059997A1, “PROPHYLACTIC AGENT AND/OR THERAPEUTIC AGENT FOR CATARACT, MEDICINAL COMPOSITION FOR PREVENTING AND/OR TREATING CATARACT, USE OF PPAR ACTIVATOR FOR PRODUCING SAME, AND EYEDROPS” (UNIVERSITY OF FUKUI, priority 2017, published 2021).

Columns and labels:
Parameters in all cases: species or system SD rat
[1] = system: isolated crystalline lenses; test: Ex vivo study: ex-vivo diabetic cataract models using galactose-containing media (microscopy); conditions: 800 μM PPAR activator added after 3 days in 30 mM galactose M199 medium; observed 3 days after restart of culture (Day 6)
Experimental: In Example 1, effects of each agent were tested with use of ex-vivo diabetic cataract models using galactose-containing media.
(§1) The crystalline lenses were isolated from the right and left eyeballs of a 6-week-old SD rat (available from Sankyo Labo Service Corporation).
The isolated crystalline lenses were cultured with use of a medium obtained by adding 30 mM of galactose to an M199 medium (available from SIGMA). After that, the crystalline lenses were cultured with use of a medium obtained by adding 30 mM of galactose and 800 μM of a PPAR activator (specifically, bezafibrate or fenofibrate) to an M199 medium.
(§2) Specific points in time at which observation was carried out are as follows. Note that the crystalline lenses were cultured with use of an incubator, the internal temperature of which was maintained at 37° C.
First, 3 days after the start of the culture of the crystalline lenses using the medium obtained by adding 30 mM of galactose to an M199 medium (available from SIGMA), the crystalline lenses were removed from the medium and observed by microscopy under a SZX12 microscope (available from Olympas).
After the microscopy, a PPAR activator was added to the medium, and the culture of the crystalline lenses was restarted. […]

[2] = system: isolated crystalline lenses; test: Quantitative ex vivo study: ex-vivo diabetic cataract models using galactose-containing media, percentage of opacity by image analysis; conditions: for Percentage of opacity of crystalline lens, Day 6: Day 6 = 3 days after restart of culture with 30 mM galactose and PPAR activator; for Percentage of opacity of crystalline lens, Day 3: Day 3 = 3 days in 30 mM galactose medium, before addition of PPAR activator; for effect on the percentage of opacity of the crystalline lens (conclusion from Table 1): ex vivo, low concentration
Experimental: In Example 2, effects of each agent were tested with use of ex-vivo diabetic cataract models using galactose-containing media, in a similar manner to Example 1.
as §1
The isolated crystalline lenses were cultured with use of a medium obtained by adding 30 mM of galactose to an M199 medium (available from SIGMA). After that, the crystalline lenses were cultured with use of a medium obtained by adding 30 mM of galactose and a PPAR activator to an M199 medium.
as §2
First, 3 days after the start of the culture of the crystalline lenses using the medium obtained by adding 30 mM of galactose to an M199 medium (available from SIGMA), the crystalline lenses were removed from the medium and observed by microscopy under a microscope SZX12 (available from Olympas).
After the microscopy, a PPAR activator was added to the medium, and the culture of the crystalline lenses was restarted. 3 days after the restart of the culture, the crystalline lenses were removed from the medium and observed again by microscopy under the microscope SZX12 (available from Olympas). Note that, for the purpose of clarifying the effects of the PPAR activator, control crystalline lenses were cultured again using a medium having no PPAR activators added thereto.
The images obtained by the microscopy were imported into image processing software (Image J), and the number of pixels was analyzed. In this way, the total area of the crystalline lens and the area of the opaque area were calculated. The percentage of opacity of the crystalline lens was calculated using the following equation.
Percentage of opacity of crystalline lens (%)=100×{(area of opaque area of crystalline lens)/(total area of crystalline lens)}

[3] = system: in-vivo diabetic cataract models raised on galactose feed; test: In vivo study: in-vivo diabetic cataract models raised on galactose feed, instillation to the eye; conditions: for Percentage of opacity of crystalline lens, Left eye: instillation to left eye four times a day for 1 week, feed containing 25% galactose; for effect on the area of the opaque area of the crystalline lens in vivo (conclusion from Table 2): left eye versus DMSO right eye
Experimental: In Example 3, effects of each agent were tested with use of in-vivo diabetic cataract models raised on galactose feed.
For the purpose of inducing cataract, a 3-week-old SD rat (available from Sankyo Labo Service Corporation) was raised for 1 week on feed containing 25% galactose. Concurrently, during the feeding period, ophthalmic agents were administered by instillation to both eyes of the rat every day (four times a day). The components of the ophthalmic agents were as follows: dimethyl sulfoxide (DMSO; administered as a control) for the right eye; and DMSO containing a PPAR activator for the left eye. On the last day of the feeding period, the crystalline lenses were isolated from the right and left eyes of the rat, and observed by microscopy.
The type of PPAR activator administered to the left eye and its concentration in Example 3 are as follows.
The total area of the crystalline lens, the area of the opaque area of the crystalline lens, and the percentage of opacity of the crystalline lens were calculated in the same manner as described in Example 2.

| Compound | Percentage of opacity of crystalline lens, Day 6 ([2]; 25 μM) | Percentage of opacity of crystalline lens, Day 6 ([2]; 100 μM) | effect on the percentage of opacity of the crystalline lens (conclusion from Table 1) [2] | Percentage of opacity of crystalline lens, Day 3 ([2]; lens later given 25 μM) | Percentage of opacity of crystalline lens, Day 3 ([2]; lens later given 100 μM) | Percentage of opacity of crystalline lens, Left eye ([3]; 200 mM in DMSO) | effect on the area of the opaque area of the crystalline lens in vivo (conclusion from Table 2) ([3]; 200 mM in DMSO) | further results |
| --- | --- | --- | --- | --- | --- | --- | --- | --- |
| CC(C)(Oc1ccc(CCNC(=O)c2ccc(Cl)cc2)cc1)C(=O)O [Bezafibrate, 2-[4-[2-[(4-chlorobenzoyl)amino]ethyl]phenoxy]-2-methylpropanoic acid] |  |  |  |  |  |  |  | effect on opacity of the cortex of the crystalline lens (microscopy) [1]: have the effect of therapeutic treatment of cataract after its development; Percentage of opacity of crystalline lens, Day 6 ([2]; 200 μM): 28.0%; Percentage of opacity of crystalline lens, Day 3 ([2]; lens later given 200 μM): 27.1% |
| CC(C)(Oc1ccc(C2CC2(Cl)Cl)cc1)C(=O)O (stereo not drawn) [Ciprofibrate, 2-[4-(2,2-dichlorocyclopropyl)phenoxy]-2-methylpropanoic acid] | 15.7% | 2.0% | have the effect of reducing the percentage of opacity of the crystalline lens even when used at low concentration | 17.5% | 16.7% | 30.2% | have the effect of reducing the area of the opaque area of the crystalline lens in vivo |  |
| Cc1ccc(C)c(OCCCC(C)(C)C(=O)O)c1 [Gemfibrozil, 5-(2,5-dimethylphenoxy)-2,2-dimethylpentanoicacid] | 8.2% |  | have the effect of reducing the percentage of opacity of the crystalline lens even when used at low concentration | 13.8% |  | 40.4% | have the effect of reducing the area of the opaque area of the crystalline lens in vivo | Percentage of opacity of crystalline lens, Day 6 ([2]; 0.8 μM): 10.3%; Percentage of opacity of crystalline lens, Day 3 ([2]; lens later given 0.8 μM): 15.4% |
| CCOC(=O)C(C)(C)Oc1ccc(Cl)cc1 [Clofibrate, ethyl 2-(4-chlorophenoxy)-2-methylpropanoate] | 27.3% | 5.7% |  | 9.7% | 7.6% |  |  |  |
| CC(C)OC(=O)C(C)(C)Oc1ccc(C(=O)c2ccc(Cl)cc2)cc1 [Fenofibrate, propan-2-yl 2-[4-(4-chlorobenzoyl)phenoxy]-2-methylpropanoate] |  |  |  |  |  |  |  | effect on opacity of the cortex of the crystalline lens (microscopy) [1]: have the effect of therapeutic treatment of cataract after its development |
| CC(C)(Oc1ccc(Cl)cc1)C(=O)OCCOC(=O)c1cccnc1 [Etofibrate, 2-[2-(4-chlorophenoxy)-2-methylpropanoyl]oxyethyl pyridine-3-carboxylate] | 25.2% | 3.2% |  | 16.8% | 11.4% |  |  | Percentage of opacity of crystalline lens, Left eye ([3]; 140 mM in DMSO): 42.8% |
| CCc1ccc(CCOc2ccc(CC3SC(=O)NC3=O)cc2)nc1 (stereo not drawn) [Pioglitazone, 5-[[4-[2-(5-ethylpyridin-2-yl)ethoxy]phenyl]methyl]-1,3-thiazolidine-2,4-dione] |  |  |  |  |  | 44.2% | did not show the effect of reducing the area of the opaque area of the crystalline lens in vivo |  |
| CN(CCOc1ccc(CC2SC(=O)NC2=O)cc1)c1ccccn1 (stereo not drawn) [Rosiglitazone, 5-[[4-[2-[methyl(pyridin-2-yl)amino]ethoxy]phenyl]methyl]-1,3-thiazolidine-2,4-dione] |  |  | have the effect of reducing the percentage of opacity of the crystalline lens even when used at low concentration |  |  | 30.6% | have the effect of reducing the area of the opaque area of the crystalline lens in vivo | Percentage of opacity of crystalline lens, Day 6 ([2]; 20 μM): 20.9%; Percentage of opacity of crystalline lens, Day 6 ([2]; 80 μM): 2.2%; Percentage of opacity of crystalline lens, Day 3 ([2]; lens later given 20 μM): 22.8%; Percentage of opacity of crystalline lens, Day 3 ([2]; lens later given 80 μM): 15.6% |
